{"source": "patent US11505556B2", "about": "“Halogenated derivatives of morphinans and uses thereof” (Xalud Therapeutics, Inc., priority 2017, dated 2022)", "key": {"Human hepatocytes": {"tested_on": "Human hepatocytes", "assay": "Hepatocyte elimination of parent compound", "details": "hepatocytes"}, "in vitro [1]": {"assay": "in vitro", "details": "rat, cultured hepatocytes"}, "[2]": {"tested_on": "acute nociceptive pain (paw incision)", "assay": "Rat paw incision model, subcutaneous (Study R049)", "details": "30 mg/kg SC TID, five days; morphine 3 mg/kg as positive control"}, "hERG": {"molecular_target": "hERG (Homo sapiens, UniProt Q12809)", "sequence (Q12809 whole entry)": "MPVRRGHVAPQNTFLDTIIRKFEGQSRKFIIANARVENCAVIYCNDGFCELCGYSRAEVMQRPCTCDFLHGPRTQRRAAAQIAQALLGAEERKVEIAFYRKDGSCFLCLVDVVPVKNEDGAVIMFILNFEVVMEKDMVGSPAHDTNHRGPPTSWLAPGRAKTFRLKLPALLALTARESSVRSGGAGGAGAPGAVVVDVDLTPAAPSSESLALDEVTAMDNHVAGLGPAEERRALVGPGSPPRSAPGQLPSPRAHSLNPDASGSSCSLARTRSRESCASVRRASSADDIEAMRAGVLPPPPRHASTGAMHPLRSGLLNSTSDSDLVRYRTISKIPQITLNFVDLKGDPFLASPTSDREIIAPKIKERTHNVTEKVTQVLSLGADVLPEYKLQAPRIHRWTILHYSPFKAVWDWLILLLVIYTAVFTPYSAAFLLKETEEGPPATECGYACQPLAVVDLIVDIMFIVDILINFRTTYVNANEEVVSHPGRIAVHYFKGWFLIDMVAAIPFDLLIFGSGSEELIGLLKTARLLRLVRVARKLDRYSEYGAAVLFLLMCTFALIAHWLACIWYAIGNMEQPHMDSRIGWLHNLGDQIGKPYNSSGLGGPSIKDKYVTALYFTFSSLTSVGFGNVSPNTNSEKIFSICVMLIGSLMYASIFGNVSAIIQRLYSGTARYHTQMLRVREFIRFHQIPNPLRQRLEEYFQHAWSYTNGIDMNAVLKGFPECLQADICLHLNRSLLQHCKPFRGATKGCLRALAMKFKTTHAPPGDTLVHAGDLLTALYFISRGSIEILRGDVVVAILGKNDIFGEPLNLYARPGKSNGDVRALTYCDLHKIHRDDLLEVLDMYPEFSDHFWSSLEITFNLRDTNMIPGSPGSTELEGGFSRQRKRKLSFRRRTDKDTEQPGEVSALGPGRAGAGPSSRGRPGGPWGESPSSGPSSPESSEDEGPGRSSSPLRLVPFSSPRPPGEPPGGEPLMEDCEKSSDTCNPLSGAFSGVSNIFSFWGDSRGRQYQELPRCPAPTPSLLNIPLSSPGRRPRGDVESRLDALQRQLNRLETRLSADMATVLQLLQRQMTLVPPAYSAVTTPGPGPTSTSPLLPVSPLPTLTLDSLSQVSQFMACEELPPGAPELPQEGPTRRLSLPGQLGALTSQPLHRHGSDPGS", "assay": "hERG inhibition"}, "[3]": {"assay": "Hepatocyte elimination of parent compound, spread across species", "format": "in vitro ADME", "details": "mouse, rat, dog, monkey, human, hepatocytes; lowest to highest species value; read-out: range of hepatocyte elimination half-life values across species", "protocol": "Hepatocyte Elimination: (+)-NTX, AK-17 and XT-203 were incubated with cultured hepatocytes from the species listed in FIG. 9 and Table 4, and samples of the culture supernatant were collected over time. Samples were concentrated by nitrogen drying followed by reconstitution with 40% methanol for LC/MS analysis The data points were analyzed using the WinNonLin pharmacokinetics software package, and a half-life was determined that describes the rate of parent elimination. […].\nIn addition to the animal studies presented above in Examples 1-9, the results of in vitro testing of several of the compounds (i.e., XT-203, XT-204, and XT-206 through XT-217) are shown in Table 5 and Table 6. […]. Nine additional compounds had two or fewer off-target hits in the screening. […] These compounds spanned all of the tested N-modification classes. […]. Thus, the medicinal chemistry approach taken in this series of fluorinated compounds can yield low off-target activity and longer metabolic lifetime while preserving TLR4 antagonism. It is appreciated that further development of compounds in this class, using techniques known to those skilled in the art, may yield additional compounds with desirable pharmacologic and toxicologic characteristics."}, "in vitro [4]": {"assay": "in vitro", "details": "monkey, cultured hepatocytes"}}, "data": [{"smiles": "COc1ccc2c3c1O[C@@H]1C(F)CCC4[C@H](C2)N(CC2CC2)CC[C@]341", "note": "(stereo partly drawn) [XT-203]", "values": [{"measurement": "half-life in human hepatocytes compared to (+)-NTX and AK-17", "setting": "Human hepatocytes", "result": "enhanced half-life"}, {"measurement": "half-life", "setting": "in vitro [1]", "result": 13.2, "unit": "min"}, {"measurement": "efficacy in rat paw incision model at the high dose", "setting": "[2]", "result": "significant efficacy"}, {"measurement": "IC50", "setting": "hERG", "result": "> 100", "unit": "µM"}, {"measurement": "half-life", "setting": "[3]", "result": "13.2 to 54.3", "unit": "min"}, {"measurement": "half-life", "setting": "in vitro [4]", "result": 13.7, "unit": "min"}]}]}
